The values that follow come from ChEMBL document CHEMBL4602601, “Pharmaceutical and medicinal significance of sulfur (SVI)-Containing motifs for drug discovery: A critical review” (Eur J Med Chem, 2019).

pEC50, pIC50, pKi: −log10 of the molar value. Some results are limits rather than exact numbers.

The test system of series [1] is Chikungunya virus. Briefly: Antiviral activity against CHIKV. The format is functional, organism-based.
Series [2] has as its target 5-hydroxytryptamine receptor 6 (Homo sapiens, UniProt P50406). Briefly: Antagonist activity at 5-HT6 receptor (unknown origin).
A short description of series [3]: Antagonist activity at cannabinoid receptor (unknown origin). Also noted: species or system Homo sapiens.
Series [4] concerns the target Carbonic anhydrase 2 (Homo sapiens, UniProt P00918). Briefly: Inhibition of human carbonic anhydrase 2.
The test system of series [5] is Leishmania infantum. Briefly: Antileishmanial activity against Leishmania infantum. The format is functional, organism-based.
For series [6], the system named is Leishmania amazonensis. Briefly: Antileishmanial activity against Leishmania amazonensis. Format: functional, organism-based.
Series [7] deals with Trypanosoma cruzi. Briefly: Antitrypanosomal activity against Trypanosoma cruzi. Format: functional, organism-based.
A short description of series [8]: Half life in rat. The format is ADME. The following applies: in vivo.
Series [9] can be described thus: Inhibition of HIV protease. Also noted: species or system Human immunodeficiency virus.
Series [10] is described as follows: Inhibition of rat 5'-nucleotidase.
For series [11], the target named is T1, Cannabinoid receptor 1 (Homo sapiens, UniProt P21554). Briefly: Antagonist activity at human cannabinoid CB1 receptor.
The target in series [12] is Carbonic anhydrase 1 (Homo sapiens, UniProt P00915). Briefly: Inhibition of human carbonic anhydrase 1.
The target of series [13] is T2, Prostaglandin G/H synthase 2 (Rattus norvegicus, UniProt P35355).
T2 sequence (P35355 whole entry): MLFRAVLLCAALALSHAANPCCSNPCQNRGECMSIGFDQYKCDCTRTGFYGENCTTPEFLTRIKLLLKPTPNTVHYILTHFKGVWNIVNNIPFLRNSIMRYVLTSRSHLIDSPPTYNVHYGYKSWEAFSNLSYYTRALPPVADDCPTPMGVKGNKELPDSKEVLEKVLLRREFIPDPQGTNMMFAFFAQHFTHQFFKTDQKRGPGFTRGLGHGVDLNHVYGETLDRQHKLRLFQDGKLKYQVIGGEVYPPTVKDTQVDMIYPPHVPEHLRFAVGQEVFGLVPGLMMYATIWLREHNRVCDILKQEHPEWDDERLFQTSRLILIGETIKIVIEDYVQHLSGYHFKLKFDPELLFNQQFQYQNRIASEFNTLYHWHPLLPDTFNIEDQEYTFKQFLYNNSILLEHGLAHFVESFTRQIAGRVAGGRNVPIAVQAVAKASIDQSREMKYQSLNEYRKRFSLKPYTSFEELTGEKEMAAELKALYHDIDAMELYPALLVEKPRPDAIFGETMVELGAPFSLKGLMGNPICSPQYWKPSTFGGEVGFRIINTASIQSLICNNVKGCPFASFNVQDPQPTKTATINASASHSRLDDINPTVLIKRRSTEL
Briefly: Inhibition of COX2 isolated from rat seminal vesicles assessed as reduction of PGG2 to PGH2 using arachidonic acid substrate preincubated for 15 mins followed by substrate addition.

Series [14] deals with T1, Cannabinoid receptor 1. Briefly: Antagonist activity at cannabinoid CB1 receptor (unknown origin).
Series [15] addresses Cannabinoid receptor 2 (Homo sapiens, UniProt P34972). Briefly: Antagonist activity at human cannabinoid CB2 receptor.
A short description of series [16]: Inhibition of HIV integrase. Also noted: species or system Human immunodeficiency virus.
Series [17] can be described thus: Inhibition of HIV RT. Also noted: species or system Human immunodeficiency virus.
Series [18] deals with Human immunodeficiency virus 1. Briefly: Antiviral activity against HIV1. The format is functional, organism-based.
Series [19] addresses Carbonic anhydrase 4 (Homo sapiens, UniProt P22748). Briefly: Inhibition of human carbonic anhydrase 4.
The test system of series [20] is THP-1. Briefly: Cytotoxicity against human THP1 cells assessed as reduction in cell viability. The format is functional, cell-based.

5-hydroxytryptamine receptor 6, sequence (P50406 whole entry): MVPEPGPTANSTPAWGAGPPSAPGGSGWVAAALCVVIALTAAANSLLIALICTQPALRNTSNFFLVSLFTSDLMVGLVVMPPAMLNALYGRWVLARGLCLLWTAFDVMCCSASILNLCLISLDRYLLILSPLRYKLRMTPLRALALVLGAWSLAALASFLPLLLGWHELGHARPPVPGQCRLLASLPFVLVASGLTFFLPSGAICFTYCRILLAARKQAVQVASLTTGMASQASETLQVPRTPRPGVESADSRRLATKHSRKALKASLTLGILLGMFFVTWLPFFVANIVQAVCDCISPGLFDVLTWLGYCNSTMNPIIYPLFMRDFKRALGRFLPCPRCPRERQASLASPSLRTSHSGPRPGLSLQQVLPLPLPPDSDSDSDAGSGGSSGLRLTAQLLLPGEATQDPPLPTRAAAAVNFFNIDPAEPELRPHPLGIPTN
T1 sequence (P21554 whole entry): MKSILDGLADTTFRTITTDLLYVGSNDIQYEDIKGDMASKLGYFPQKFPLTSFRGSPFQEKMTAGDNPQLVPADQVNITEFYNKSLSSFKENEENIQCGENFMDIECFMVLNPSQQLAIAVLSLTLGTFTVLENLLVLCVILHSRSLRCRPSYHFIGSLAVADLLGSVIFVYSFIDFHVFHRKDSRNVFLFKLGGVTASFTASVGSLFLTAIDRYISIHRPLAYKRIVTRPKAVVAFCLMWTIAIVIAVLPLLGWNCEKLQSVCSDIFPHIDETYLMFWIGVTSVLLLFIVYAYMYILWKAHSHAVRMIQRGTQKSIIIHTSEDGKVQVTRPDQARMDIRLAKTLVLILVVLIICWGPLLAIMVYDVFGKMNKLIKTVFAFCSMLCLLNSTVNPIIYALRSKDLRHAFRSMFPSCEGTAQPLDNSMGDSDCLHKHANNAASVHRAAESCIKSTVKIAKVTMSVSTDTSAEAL
Carbonic anhydrase 1, sequence (P00915 whole entry): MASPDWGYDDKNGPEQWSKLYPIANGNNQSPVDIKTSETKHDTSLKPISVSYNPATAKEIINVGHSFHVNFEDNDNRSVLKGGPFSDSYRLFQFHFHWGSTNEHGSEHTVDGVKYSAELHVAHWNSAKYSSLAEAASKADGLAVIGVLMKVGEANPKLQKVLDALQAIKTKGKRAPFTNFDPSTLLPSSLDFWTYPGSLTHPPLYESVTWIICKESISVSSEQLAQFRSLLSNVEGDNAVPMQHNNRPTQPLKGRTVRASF
Cannabinoid receptor 2, sequence (P34972 whole entry): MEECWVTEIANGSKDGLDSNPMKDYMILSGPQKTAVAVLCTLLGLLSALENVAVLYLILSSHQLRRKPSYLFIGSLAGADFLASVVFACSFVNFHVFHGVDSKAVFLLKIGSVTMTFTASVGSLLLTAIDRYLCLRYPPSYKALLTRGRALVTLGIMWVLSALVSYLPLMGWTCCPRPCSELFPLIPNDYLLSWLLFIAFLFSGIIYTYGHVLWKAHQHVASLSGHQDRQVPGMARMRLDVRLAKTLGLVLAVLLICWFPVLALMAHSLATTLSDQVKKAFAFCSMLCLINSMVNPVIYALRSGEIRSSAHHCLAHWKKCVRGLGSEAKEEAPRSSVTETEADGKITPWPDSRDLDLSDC
Carbonic anhydrase 4, sequence (P22748 whole entry): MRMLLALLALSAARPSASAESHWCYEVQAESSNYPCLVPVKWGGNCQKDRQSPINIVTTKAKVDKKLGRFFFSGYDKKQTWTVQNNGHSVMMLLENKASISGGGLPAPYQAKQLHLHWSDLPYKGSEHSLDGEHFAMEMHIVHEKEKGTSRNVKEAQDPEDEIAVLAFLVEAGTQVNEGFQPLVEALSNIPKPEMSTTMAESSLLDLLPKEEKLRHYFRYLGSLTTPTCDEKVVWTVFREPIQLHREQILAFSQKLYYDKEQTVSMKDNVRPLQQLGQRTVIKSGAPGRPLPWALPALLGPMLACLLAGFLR

In series [1], `Cc1ccc(S(=O)(=O)Oc2ccc3c(CSc4nc5ccccc5c(=O)[nH]4)cc(=O)oc3c2)cc1` showed a pEC50 of 4.99.

Turning to `O=S(=O)(Nc1ccc2sc(N3CCNCC3)nc2c1)c1cccc2ccccc12`, the pKi in series [2] was 6.30.

On to `O=S(=O)(NCc1ccc(-c2ccc(F)cc2F)cn1)c1cc2cc(Cl)ccc2[nH]1`, for which, in series [3], the pIC50 is 8.52.

`NS(=O)(=O)c1ccc(N2C(=O)CC/C2=C\C(=O)c2ccc([N+](=O)[O-])cc2Cl)cc1` had a pIC50 in series [4] of 9.34.

In turn, `NS(=O)(=O)c1ccc(N2C(=O)CC/C2=C\C(=O)c2cccc(F)c2)cc1` gave a pIC50 in series [4] of 9.34.

Regarding `O=c1ccnc(SCc2cc(=O)oc3cc(OS(=O)(=O)c4ccccc4[N+](=O)[O-])ccc23)[nH]1`, the pEC50 in [1] was 4.89.

On to `O=S(=O)(Nc1cccc2cnccc12)c1ccc2ccccc2c1`, for which the pIC50 in series [5] is 4.64; in series [6], 4.37; in series [7], 3.65.

In turn, `N#Cc1ccc(S(=O)(=O)Nc2cccc(C(c3c(O)c4c(oc3=O)CCCCCC4)C3CC3)c2)cc1` (configuration not stated) showed a pIC50 in [1] of 8.82. Also, the half-life in series [8] is 6 h. The same molecule gave a pKi in [9] of 9.10.

In series [2], `O=S(=O)(Cl)c1c(Cl)nc2n1CCS2` showed a pKi of 8.08.

In turn, `CCn1cnc2c(Oc3ccc(/C=C/C(=O)c4ccc(NS(=O)(=O)c5ccccc5C)cc4)cc3)ncnc21` came in with an EC50 in [1] of 51.6 µg/mL.

In [10], `COc1ccc(/C=C/C(=O)/C(=N/Nc2ccc(S(N)(=O)=O)cc2)N2CCOCC2)cc1` showed a pIC50 of 6.48.

Take `O=S(=O)(Nc1ccc2[nH]ccc2c1)c1c(Cl)nc2n1CCS2`: the pKi in series [2] is 7.77.

Turning to `Cc1cc(S(=O)(=O)N2CCc3c(nc(CC(C)(C)C)n3CC3CC3)C2)no1`, in series [11], the pEC50 is 8.15.

In turn, `CC(=O)/C(=N\Nc1cccc(-n2nc(C(=O)Nc3nnc(S(N)(=O)=O)s3)c(C(=O)Nc3nnc(S(N)(=O)=O)s3)c2-c2ccccc2)c1)C(=O)c1ccccc1` had a pKi in series [12] of 6.92.

In the case of `Cc1cc(S(=O)(=O)N2CCc3c(nc(C(C)(C)C)n3CC3CC3)C2)no1`, the pEC50 in series [11] was 8.29.

In the case of `C/C(=N\NC(=O)CNC(=O)c1cccc(S(=O)(=O)Nc2ccccc2Cl)c1)c1ccc(F)cc1`, the pIC50 in [13] was 5.08.

With `O=C(NN1CCCCC1)c1cn(-c2ccc(Cl)cc2Cl)c(-c2ccc(C#Cc3ccc(C(F)(F)F)cc3)s2)c1CNS(=O)(=O)N1CCCC1`, the values for the pKi in [11] and in series [15] were 9.52 and 7.68, respectively. This molecule also showed a negative-log EC50 (pEC50) in series [14] of 8.52.

Molecule `CCCC(=O)/C(=N/Nc1cccc(-n2nc(C(=O)Nc3nnc(S(N)(=O)=O)s3)c(C(=O)Nc3nnc(S(N)(=O)=O)s3)c2-c2ccccc2)c1)C(=O)OCC` gave a pKi in series [4] of 6.05.

As for `O=C(CNC(=O)c1cccc(S(=O)(=O)Nc2ccccc2Cl)c1)N/N=C/c1ccc(C(F)(F)F)cc1`, the pIC50 in [13] was 5.05.

As for `CN1CCN(c2nc3cc(NS(=O)(=O)c4cccc5ccccc45)ccc3s2)CC1`, the pIC50 in series [2] is 5.41.

The molecule `CC(=O)N1CCc2ccc(NS(=O)(=O)c3c(Cl)nc4n3CCS4)cc21` gave a pKi in series [2] of 8.27.

As for `CC(C)c1ccc(S(=O)(=O)Nc2ccc3nc(N4CCN(C)CC4)sc3c2)cc1`, in series [2], the pIC50 was 4.85.

As to `NS(=O)(=O)c1ccc(N2C(=O)/C(=C/c3ccc(C(F)(F)F)cc3)C=C2c2ccc(Cl)cc2)cc1`, in [13], the pIC50 was 6.21.

On to `CN(C)c1cccnc1N1CCN(C(=O)c2cc3cc(NS(C)(=O)=O)ccc3[nH]2)CC1`, for which the pIC50 is 7.44 in [16], less than 4.00 in series [17] and 7.68 in series [18].

For `COc1ccc(C2=NN(C(C)=O)C(c3ccc(OS(N)(=O)=O)cc3)C2)cc1` (configuration not stated), the pIC50 in [4] was 9.40; in [19] it was 7.69.

In turn, `CCOc1ccc(-c2ccc(CNS(=O)(=O)c3cc4cc(Cl)ccc4[nH]3)cc2)cn1` showed a pIC50 in series [3] of 8.40.

With `O=S(=O)(Nc1ccc([Se][Se]c2ccc(NS(=O)(=O)c3ccc(F)cc3)cc2)cc1)c1ccc(F)cc1`, the pIC50 in series [20] was 5.55.

For `COc1cc(/C=C2\C=C(c3ccc(Cl)cc3)N(c3ccc(S(N)(=O)=O)cc3)C2=O)cc(OC)c1OC`, the pIC50 in series [13] is 6.38.

Broadly, the pEC50 is the negative decadic logarithm of the EC50, by convention in mol/L. By pKi is commonly meant the Ki on a negative log10 scale, so that one unit is a factor of ten. High values mean a low Ki, low ones a high Ki. As a reminder, the pIC50 is −log10 of the IC50, conventionally taken in molar units. What is called half-life is the time needed for the level to fall by half in the phase considered. The low end stands for rapid decline, the high end for slow decline. For orientation: EC50 means the concentration at which the effect is half-maximal. A low value points to higher potency in that assay.
